# Experiments:
# L5178Y [1] = experiment: Cytotoxicity against human ABCB1 expressing mouse L5178Y cells incubated for 24 hrs by MTT assay; type: functional, cell-based
# [2] = biological target: T1, ATP-dependent translocase ABCB1 (Homo sapiens, UniProt P08183); experiment: Inhibition of human ABCB1 expressed in mouse L5178Y cells assessed as fluorescence activity ratio at 2 uM incubated for 10 mins by flow cytometry based rhodamine-123 accumulation assay (reference value: 0.78); type: cell-based
# T1 sequence (P08183 whole entry): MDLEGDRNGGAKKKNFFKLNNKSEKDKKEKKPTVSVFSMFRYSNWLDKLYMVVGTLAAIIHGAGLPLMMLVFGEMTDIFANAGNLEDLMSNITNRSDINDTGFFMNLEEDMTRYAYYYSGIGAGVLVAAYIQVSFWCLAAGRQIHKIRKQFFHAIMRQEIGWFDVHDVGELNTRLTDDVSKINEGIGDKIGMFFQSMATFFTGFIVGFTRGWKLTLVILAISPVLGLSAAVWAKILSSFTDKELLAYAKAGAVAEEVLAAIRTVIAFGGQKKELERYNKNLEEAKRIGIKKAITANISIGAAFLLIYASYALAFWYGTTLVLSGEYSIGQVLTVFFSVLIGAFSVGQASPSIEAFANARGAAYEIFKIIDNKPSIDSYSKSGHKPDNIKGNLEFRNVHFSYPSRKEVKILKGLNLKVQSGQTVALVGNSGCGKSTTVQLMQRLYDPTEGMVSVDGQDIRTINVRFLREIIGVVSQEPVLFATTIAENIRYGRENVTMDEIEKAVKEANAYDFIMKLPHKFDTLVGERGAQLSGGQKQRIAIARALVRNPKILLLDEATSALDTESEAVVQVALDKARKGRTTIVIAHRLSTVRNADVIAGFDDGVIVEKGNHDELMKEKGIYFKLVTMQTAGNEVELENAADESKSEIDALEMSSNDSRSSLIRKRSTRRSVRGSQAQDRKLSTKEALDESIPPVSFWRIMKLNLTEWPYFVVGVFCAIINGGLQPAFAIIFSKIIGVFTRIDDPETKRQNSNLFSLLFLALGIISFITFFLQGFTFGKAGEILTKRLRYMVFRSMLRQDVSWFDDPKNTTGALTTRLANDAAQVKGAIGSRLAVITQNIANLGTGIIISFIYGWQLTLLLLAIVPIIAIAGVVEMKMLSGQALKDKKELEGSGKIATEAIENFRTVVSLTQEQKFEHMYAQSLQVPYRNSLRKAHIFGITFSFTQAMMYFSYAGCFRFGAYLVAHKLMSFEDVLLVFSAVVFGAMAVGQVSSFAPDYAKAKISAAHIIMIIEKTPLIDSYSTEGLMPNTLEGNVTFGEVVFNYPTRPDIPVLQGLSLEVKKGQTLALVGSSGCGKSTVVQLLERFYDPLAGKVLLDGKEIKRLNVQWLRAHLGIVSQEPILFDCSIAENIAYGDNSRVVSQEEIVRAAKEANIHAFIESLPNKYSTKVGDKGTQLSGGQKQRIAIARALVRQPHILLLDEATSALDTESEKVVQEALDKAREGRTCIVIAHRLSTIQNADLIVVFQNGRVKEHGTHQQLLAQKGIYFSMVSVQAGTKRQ
# [3] = biological target: T1, ATP-dependent translocase ABCB1; experiment: Inhibition of ABCB1 in multidrug resistant human COLO320 cells assessed as fluorescence activity ratio at 2 uM incubated for 10 mins by flow cytometry based rhodamine-123 accumulation assay (reference value: 0.62)
# [4] = biological target: T1, ATP-dependent translocase ABCB1; experiment: Inhibition of ABCB1 in multidrug resistant human COLO320 cells assessed as fluorescence activity ratio at 0.2 uM incubated for 10 mins by flow cytometry based rhodamine-123 accumulation assay (reference value: 0.62)
# [5] = biological target: T1, ATP-dependent translocase ABCB1; experiment: Inhibition of human ABCB1 expressed in mouse L5178Y cells assessed as potentiation of 2 mg/ml doxorubicin-induced cytotoxicty by measuring combination index at 5:1 compound to doxorubicin ratio incubated for 48 hrs by MTT assay; type: cell-based
# [6] = Antiproliferative activity against multidrug resistant human COLO320 cells incubated for 72 hrs by MTT assay; type: functional; settings: COLO 320, 72 h
# [7] = biological target: T1, ATP-dependent translocase ABCB1; experiment: Inhibition of ABCB1 in multidrug resistant human COLO320 cells assessed as fluorescence activity ratio at 20 uM incubated for 10 mins by flow cytometry based rhodamine-123 accumulation assay (reference value: 0.62)
# [8] = biological target: T1, ATP-dependent translocase ABCB1; experiment: Inhibition of human ABCB1 expressed in mouse L5178Y cells assessed as fluorescence activity ratio at 20 uM incubated for 10 mins by flow cytometry based rhodamine-123 accumulation assay (reference value: 0.78); type: cell-based
# [9] = biological target: T1, ATP-dependent translocase ABCB1; experiment: Inhibition of human ABCB1 expressed in mouse L5178Y cells assessed as fluorescence activity ratio at 0.2 uM incubated for 10 mins by flow cytometry based rhodamine-123 accumulation assay (reference value: 0.78); type: cell-based
# L5178Y [10] = experiment: Antiproliferative activity against human ABCB1 expressing mouse L5178Y cells incubated for 72 hrs by MTT assay; type: functional, cell-based
# L5178Y [11] = experiment: Selectivity index, ratio of antiproliferative IC50 for wild type parental mouse L5178Y cells to antiproliferative IC50 for human ABCB1 expressing mouse L5178Y cells; type: functional
# L5178Y [12] = experiment: Cytotoxicity against chemosensitive wild type parental mouse L5178Y cells incubated for 24 hrs by MTT assay; type: functional, cell-based
# [13] = Selectivity index, ratio of antiproliferative IC50 for chemosensitive human COLO205 cells to antiproliferative IC50 for multidrug resistant human COLO320 cells; type: functional, COLO 205
# L5178Y [14] = experiment: Selectivity index, ratio of cytotoxic IC50 for wild type parental mouse L5178Y cells to cytotoxic IC50 for human ABCB1 expressing mouse L5178Y cells; type: functional
# L5178Y [15] = experiment: Antiproliferative activity against chemosensitive wild type parental mouse L5178Y cells incubated for 72 hrs by MTT assay; type: functional, cell-based
# [16] = Antiproliferative activity against chemosensitive human COLO205 cells incubated for 72 hrs by MTT assay; type: functional, cell-based; settings: COLO 205, 72 h
# COLO 205 = experiment: Cytotoxicity against chemosensitive human COLO205 cells incubated for 24 hrs by MTT assay; type: functional, cell-based; settings: COLO 205, 24 h
# [17] = Cytotoxicity against multidrug resistant human COLO320 cells incubated for 24 hrs by MTT assay; type: functional, cell-based; settings: COLO 320, 24 h
# [18] = Selectivity index, ratio of cytotoxic IC50 for chemosensitive human COLO205 cells to cytotoxic IC50 for multidrug resistant human COLO320 cells; type: functional, COLO 205
# [19] = biological target: T1, ATP-dependent translocase ABCB1; experiment: Inhibition of human ABCB1 expressed in mouse L5178Y cells assessed as potentiation of 2 mg/ml doxorubicin-induced cytotoxicty by measuring combination index at 4:1 compound to doxorubicin ratio incubated for 48 hrs by MTT assay; type: cell-based
# [20] = biological target: T1, ATP-dependent translocase ABCB1; experiment: Inhibition of human ABCB1 expressed in mouse L5178Y cells assessed as potentiation of 2 mg/ml doxorubicin-induced cytotoxicty at 6:1 compound to doxorubicin ratio incubated for 48 hrs by MTT assay; type: cell-based
# [21] = biological target: T1, ATP-dependent translocase ABCB1; experiment: Activation of human ABCB1 expressed in Sf9 cell membrane vesicles assessed as inorganic phosphate release at 0.8 uM to 100 uM using MgATP by colorimetric ATPase assay
Ratio [2],Ratio [3],Ratio [4],Ratio [7],Ratio [8],Ratio [9],Compound,IC50 (L5178Y [1]),CI [5],IC50 [6],IC50 (L5178Y [10]),Ratio IC50 (L5178Y [11]),IC50 (L5178Y [12]),Ratio IC50 [13],Ratio IC50 (L5178Y [14]),IC50 (L5178Y [15]),IC50 [16],IC50 (COLO 205),IC50 [17],Ratio IC50 [18],also measured
39.3,8.25,2.83,11.56,41.81,9.87,CO[C@H]1[C@@H]2[C@H](CC[C@]3(COC(=O)c4ccc(C(F)(F)F)cc4)O[C@@H]3[C@H]3[C@@H](OC(=O)c4ccc(C(F)(F)F)cc4)[C@@H](C)C[C@]3(O)C(=O)[C@@H]1C)C2(C)C,50.9 µM,0.054,9.3 µM,37.6 µM,0.78,48 µM,0.88,0.94,33.3 µM,8.2 µM,,,,
8.03,3.07,1.02,12.31,56.81,1.38,C/C1=C\[C@@H]2[C@H](CC[C@]3(CO3)[C@H](OC(=O)c3ccc(N(C)C)cc3)[C@H]3[C@@H](OC(=O)c4ccc(N(C)C)cc4)[C@@H](C)C[C@]3(O)C1=O)C2(C)C,48.4 µM,0.172,21.3 µM,45.7 µM,0.63,33.9 µM,0.8,0.7,28.8 µM,17.2 µM,22.5 µM,36.2 µM,0.62,
11.37,2.76,,5.98,51.34,,CC(=O)O[C@@H]1[C@@H]2[C@@H](OC(C)=O)[C@](C)(OC(C)=O)CC[C@H]3[C@@H](/C=C(\C)[C@H](OC(C)=O)[C@@]2(OC(C)=O)C[C@@H]1C)C3(C)C,> 100 µM,0.205,> 100 µM,> 100 µM,,> 100 µM,,,> 100 µM,> 100 µM,49.1 µM,51.4 µM,0.96,
1.22,1.09,,1.42,1.38,,C/C1=C\[C@@H]2[C@H](CC[C@]3(CO3)[C@H](OC(=O)N3CCOCC3)[C@H]3[C@@H](OC(=O)N4CCOCC4)[C@@H](C)C[C@]3(O)C1=O)C2(C)C,> 100 µM,,> 100 µM,> 100 µM,,> 100 µM,,,> 100 µM,> 100 µM,> 100 µM,> 100 µM,,
1.16,1.1,,2.25,2.07,,CO[C@H]1[C@@H]2[C@H](CC[C@]3(COC(C)=O)O[C@@H]3[C@H]3[C@@H](OC(C)=O)[C@@H](C)C[C@]3(O)C(=O)[C@@H]1C)C2(C)C,> 100 µM,,65.8 µM,> 100 µM,,> 100 µM,>1.98,,> 100 µM,> 100 µM,> 100 µM,> 100 µM,,CI [20]: 0.214

# More lines, now with the values behind:
Compound,Ratio [2],Ratio [3],Ratio [4],Ratio [7],Ratio [8],Ratio [9],IC50 (L5178Y [1]),CI [5],IC50 [6],IC50 (L5178Y [10]),Ratio IC50 (L5178Y [11]),IC50 (L5178Y [12]),Ratio IC50 [13],Ratio IC50 (L5178Y [14]),IC50 (L5178Y [15]),IC50 [16],IC50 (COLO 205),IC50 [17],Ratio IC50 [18],also measured
C/C1=C\[C@@H]2[C@H](CC[C@]3(CO3)[C@H](OC(=O)c3cccc(C)c3)[C@H]3[C@@H](OC(=O)c4cccc(C)c4)[C@@H](C)C[C@]3(O)C1=O)C2(C)C,86.39,5.59,3,6.86,83.29,3.55,> 50 µM,0.066,15.7 µM,29 µM,1.44,26.4 µM,0.98,<0.53,41.8 µM,15.4 µM,> 50 µM,23.9 µM,>2.09,
C/C1=C\[C@@H]2[C@H](CC[C@]3(CO3)[C@H](OC(=O)c3ccco3)[C@H]3[C@@H](OC(=O)c4ccco4)[C@@H](C)C[C@]3(O)C1=O)C2(C)C,6.09,1.67,,5.5,42.56,,> 50 µM,0.053,28.4 µM,> 50 µM,<0.5,> 50 µM,0.98,,24.8 µM,27.8 µM,> 50 µM,> 50 µM,,
C/C1=C\[C@@H]2[C@H](CC[C@]3(CO3)[C@H](OC(=O)C34CC5CC(CC(C5)C3)C4)[C@H]3[C@@H](OC(=O)C45CC6CC(CC(C6)C4)C5)[C@@H](C)C[C@]3(O)C1=O)C2(C)C,22.36,1.2,,1.64,31.69,,> 50 µM,,27.6 µM,> 50 µM,,> 50 µM,>1.81,,> 50 µM,> 50 µM,> 50 µM,> 50 µM,,
C/C1=C\[C@@H]2[C@H](CC[C@@](C)(O)[C@H](O)[C@H]3[C@@H](OC(=O)c4ccccc4)[C@@H](C)C[C@]3(O)[C@H]1OC(=O)c1ccccc1)C2(C)C,43.35,2.94,1.48,5.78,71.12,2.33,50.7 µM,,30.5 µM,> 100 µM,<0.39,52.4 µM,>3.28,1.03,38.5 µM,> 100 µM,44.9 µM,51.2 µM,0.88,
C/C1=C\[C@@H]2[C@H](CC[C@]3(CO3)[C@H](OC(=O)c3ccc4ccccc4c3)[C@H]3[C@@H](OC(=O)c4ccc5ccccc5c4)[C@@H](C)C[C@]3(O)C1=O)C2(C)C,58.84,5.83,2.54,5.06,66.52,13.67,> 100 µM,,> 100 µM,> 100 µM,,> 100 µM,,,> 100 µM,> 100 µM,> 100 µM,> 100 µM,,CI [19]: 0.233
C/C1=C\[C@@H]2[C@H](CC[C@@](C)(O)[C@H](O)[C@H]3[C@@H](OC(=O)c4ccccc4)[C@@H](C)C[C@]3(O)[C@H]1O)C2(C)C,1.45,1.37,,4.29,33.19,,> 100 µM,,37.1 µM,> 100 µM,,> 100 µM,0.84,,> 100 µM,30.4 µM,> 100 µM,52.7 µM,>1.9,CI [20]: 0.23
C/C1=C\[C@@H]2[C@H](CC[C@]3(CO3)[C@H](OC(=O)c3ccc(-c4ccccc4)cc3)[C@H]3[C@@H](OC(=O)c4ccc(-c5ccccc5)cc4)[C@@H](C)C[C@]3(O)C1=O)C2(C)C,22.82,2.7,,2.64,30.97,,> 100 µM,,> 100 µM,> 100 µM,<0.74,> 100 µM,,,74.3 µM,> 100 µM,> 100 µM,> 100 µM,,
COc1cccc(C(=O)O[C@@H]2[C@@H]3[C@@H](OC(=O)c4cccc(OC)c4)[C@]4(CC[C@H]5[C@@H](/C=C(\C)C(=O)[C@@]3(O)C[C@@H]2C)C5(C)C)CO4)c1,60.62,9.1,3.13,15.4,63.13,10.45,> 100 µM,0.097,> 100 µM,52.8 µM,0.46,42.3 µM,,<0.42,24.5 µM,> 100 µM,> 100 µM,> 100 µM,,Activity [21]: Active

# — ChEMBL document CHEMBL3608294, “Epoxylathyrol Derivatives: Modulation of ABCB1-Mediated Multidrug Resistance in Human Colon Adenocarcinoma and Mouse T-Lymphoma Cells” (J Nat Prod, 2015)
